Laboratory results as given in publication PMC12250893, “Systematic Characterization of In Vitro and In Vivo Metabolic Pathways and Identification of Novel Biomarkers of 26 Synthetic Cannabinoids” (Molecules, 2025).
“Also recorded” adds a separate entry of the source. Where two headings read alike, the source gives them in different places.

How the values were obtained:
[1] = Clinical symptoms of rats in metabolic model; type: in vivo, rat; settings: SD rats, dose 0.05-0.5 mg/kg per Table 6
Procedure: (§1) Sprague-Dawley male rats (200 ± 20 g) were obtained from SPF (Beijing) Biotechnology Co., Ltd. (Beijing, China). The animals were housed under controlled environmental conditions: Temperature was maintained at 20–25 °C, humidity at 50 ± 10%, and a 12/12 h light/dark cycle was applied. They had ad libitum access to standard laboratory chow and filtered water. A two-week acclimatization period was provided before the experiments began. The 26 SC standards were prepared in normal saline at concentrations of 0.5 mg/mL, 0.1 mg/mL, and 0.05 mg/mL. Each rat was weighed before administration, and the injection dose was adjusted based on body weight. The dosing volume for each rat was maintained at approximately 200 µL.
(§2) 162 Sprague-Dawley (SD) rats were randomly divided into 27 groups, with six rats in each group. The control group received an injection of normal saline, while the remaining groups were injected with 26 different types of SCs. The dosage administered was determined based on pre-experimental results, specifically selecting the dose that produced the highest level of metabolites in the blood samples collected 1 h after tail vein injection at concentrations of 0.5 mg/kg, 0.1 mg/kg, and 0.05 mg/kg, as shown in Table 6. Subsequently, tail vein administration was conducted at the specified dosage. The orbital venous blood was taken from the outer canthus of the rat with capillaries at 15 min and 1 h. Feces were collected after the blood. The rats were then sacrificed, and their brains and livers were dissected. Samples were immediately frozen in liquid nitrogen and stored at −80 °C until analysis.

[2] = Rat metabolic model, metabolite identification; type: in vivo
Procedure: as §1, §2
(§3) For blood samples, 0.5 mL of each sample was mixed with 1.0 mL of acetonitrile. For brain samples, 0.2 g of tissue was combined with 0.5 mL of acetonitrile. For liver samples, 0.5 g of tissue was mixed with 0.5 mL of acetonitrile. For feces samples, 0.2 g of sample was combined with 1 mL of acetonitrile-water (3:1) for grinding and homogenization. Each mixture was sonicated for 40 min, allowed to precipitate at 4 °C for 30 min, and then centrifuged at 13,500 rpm for 10 min. The supernatant was filtered using a syringe filter (0.45 μm) for further testing.

[3] = Human liver microsomal incubation (in vitro metabolic model); settings: for Conversion Rate: HLM, 37 °C 1 h, then UDPGA 30 min, peak area of parent in experimental group vs degradation control group; for most prevalent Phase II metabolic reaction / predominant Phase I metabolic reactions: human liver microsomal incubations
Procedure: Each of the 26 SCs was configured to 1 mg/mL with acetonitrile. The HLMs, NADPH regeneration solution A, regeneration solution B, and UDPGA solution were thawed at 4 °C. An icebox was prepared, and all additional steps were performed on ice. For this, 10 µL of NADPH regeneration solution A, 2 µL of regeneration solution B, 2 µL of SCs standard, and 10 µL of mixed human liver microsomes were added to 176 µL of 0.1 mol/L phosphate buffer. The mixture was mixed thoroughly and incubated at 37 °C for 1 h. Subsequently, 20 µL of UDPGA solution was added and mixed well, followed by an additional incubation for 30 min. The reaction was stopped by adding 200 µL of ice-cold acetonitrile. Additionally, the negative control group and the degradation control group were set up following the same procedure. […] The unadded components were supplemented with an equal amount of phosphate buffer. All samples were centrifuged at a high speed of 13,500 r for 10 min after reaction termination. The supernatant was collected and subsequently passed through a membrane filter (0.45 μm) prior to sampling.
The samples were separated and analyzed using a UHPLC-Q-Exactive Orbitrap MS system (Thermo Fisher Scientific, Waltham, MA, USA), which comprised a Thermo-Scientific™ Q-Exactive™(Thermo Fisher Scientific, Waltham, MA, USA) quadrupole electrostatic field orbitrap mass spectrometer coupled to a Vanquish ultrahigh-performance liquid chromatography (UHPLC) system (Thermo Fisher Scientific, Waltham, MA, USA) with a heated electrospray ionization HESI source in the positive ionization mode. The samples were separated on an ACQUITY UPLC BEH C18 Column (100 × 2.1 mm, 1.7 μm) with the column temperature maintained at 30 °C. The chromatographic separation was achieved using a gradient elution program with mobile phase A consisting of 0.1% formic acid in water and mobile phase B containing 0.1% formic acid in acetonitrile. The gradient profile was programmed as follows: Initial conditions were maintained at 5% B from 0 to 1 min, followed by a linear increase to 95% B from 1 to 11 min; the 95% B composition was held from 11 to 15.5 min, then decreased back to 5% B from 15.5 to 16 min, and finally maintained at 5% B from 16 to 18 min. The flow rate was set at 0.3 mL/min, and the injection volume was 10 μL for all analyses.
The following HESI source conditions were adopted: Acquisition mode was set to positive ion mode; the capillary temperature was maintained at 325 °C, the auxiliary gas heater temperature was set to 350 °C, and the spray voltage was applied at 3.7 kV. The mass spectrometry analysis was carried out in full-scan (FS) mode to trigger data-dependent acquisition in tandem mass spectrometry (FS-ddMS^2) mode. The FS data acquisition was performed using the following parameters: a resolution of 60,000, an automatic gain control (AGC) target of 1 × 10^6, a scan range of m/z 66.7–1000, and a maximum injection time (IT) of 250 ms. The ddMS^2 data acquisition was performed using the following parameters: a resolution of 30,000; an automatic gain control (AGC) target of 1 × 10^5; normalized collision energies (NCEs) of 20, 40, and 70 eV; and a maximum injection time (IT) of 50 ms.
Data acquisition was executed utilizing Xcalibur 4.3 software (Thermo Fisher Scientific, Waltham, MA, USA). The subsequent analysis of the acquired data was conducted using Thermo Fisher Scientific […] 3.2 software (Thermo Fisher Scientific, Waltham, MA, USA). The workflow’s nodes employed specific parameters: a mass tolerance of 5 ppm, a signal-to-noise threshold of 3, a minimum peak intensity of 1 × 10^5, a maximum peak width of 0.8 min, and a minimum of 3 scans per peak.

[4] = Metabolite identification, HLM incubation and rat model combined (UHPLC-Q-Exactive Orbitrap MS); set-up: species or system human; rat; settings: for metabolite that was a common outcome in both models: HLM incubation and rat model; for Characteristic Metabolite: characteristic / defining metabolites by the screening criteria; for Number of Metabolites / Number of Phase I Metabolites / Number of Phase II Metabolites: in vitro (HLM) and in vivo (rat) models together
Procedure: as §1, §2, §3

[5] = pooled HLM and real urine samples; cited from earlier work
[6] = set-up: method as in PMID 32678962; settings: in vitro and in vivo systems; cited from earlier work
[7] = following human liver microsomal incubation

SMILES	key Phase I metabolic reactions [2]	most significant Phase II metabolic processes [2]	Phase II metabolites identified ([2]; tail vein injection)	metabolic pathways associated ([2]; tail vein injection)	metabolites identified ([2]; tail vein injection)	Conversion Rate [3]	Phase II metabolites detected [3, 7]	metabolites detected [3, 7]	most prevalent Phase II metabolic reaction [3]	predominant Phase I metabolic reactions [3]	metabolite that was a common outcome in both models [4]	Characteristic Metabolite [4]	Number of Metabolites [4]	Number of Phase I Metabolites [4]	Number of Phase II Metabolites [4]	also measured
CCOC(=O)C(NC(=O)c1nn(CCCCCF)c2ccccc12)C(C)C (stereo not shown) [5F-EMB-PINACA]	oxidative defluorination and hydroxylation	sulfation and arginine binding reactions	3	eight	13	100.0%	one	eleven	glucuronidation	ester hydrolysis and hydroxylation	ester hydrolysis metabolite	ester hydrolysis, ester hydrolysis, hydroxylated, and oxidative defluorination metabolites; also recorded: Ester hydrolysis, oxidative defluorination, ester hydrolysis, and hydroxylated metabolites	23	19	4	Animal manifestations after tail vein drug injection [1]: irritable, with unstable gait and tachypnea; also recorded: hematuria
COC(=O)C(NC(=O)c1cn(CCCCCF)c2ccccc12)C(C)(C)C (stereo not shown) [5F-MDMB-PICA]	oxidative defluorination and hydroxylation	sulfation and glycoside binding reactions	five	seven	twelve	95.9%	two	fourteen	glucuronidation	ester hydrolysis and hydroxylation	oxidative defluorination metabolite	ester hydrolysis, de-N-alkylation, and oxidative defluorination metabolites; also recorded: Ester hydrolysis, de-N-alkyl side chain, and oxidative defluorination metabolite	25	18	7	most abundant stage I metabolites [5]: ester hydrolysis metabolites; Phase I metabolites identified ([2]; tail vein injection): seven; Phase I metabolites detected [3, 7]: twelve; metabolic pathways involved [3, 7]: eight
CC(C)(NC(=O)c1cn(CCCCCF)c2ncccc12)c1ccccc1 [CUMYL-5F-P7ICA]																Phase II metabolites detected [6]: sulfated and glucuronidated; most common Phase I reactions [6]: oxidative defluorination, monohydroxylation, ketone formation, and carboxylation
